Measurements published in patent US7692014B2, “Inhibitors of the HIV integrase enzyme” (Pfizer, Inc., priority 2004, dated 2010).

What was measured:
[1] = target: T1, Full-length wild type HIV-1 integrase (SF1) (Human immunodeficiency virus type 1 group M subtype B, UniProt P04585); experiment: Integrase strand-transfer scintillation proximity assay; assay type: biochemical; settings: integrase strand-transfer SPA; read-out: IC50
T1 construct: made in house; host or cells: E. coli BL21 (DE3), pET24a vector
Excerpt: Integrase Strand-Transfer Scintillation Proximity Assay Oligonucleotides
The annealed product represents preprocessed viral ds-DNA derived from the LTR U5 sequence of the viral genome. A ds-DNA control to test for non-specific interactions was made using a 3′ di-deoxy derivative of oligonucleotide #1 annealed to oligonucleotide #2. The CA overhang at the 5′ end of the non-biotinylated strand of the ds-DNA was created artificially by using a complimentary DNA oligonucleotide shortened by 2 base pairs. This configuration eliminates the requisite 3′ processing step of the integrase enzyme prior to the strand-transfer mechanism.
Host ds-DNA was prepared as an unlabeled and [^3H]-thymidine labeled product from annealed oligonucleotide #3—5-[…]-3′ (SEQ ID NO: 3), and oligonucleotide #4—5′-[…]-3′ (SEQ ID NO: 4), both synthesized by TriLink BioTechnologies, Inc. (San Diego, Calif.). The annealed product had overhanging 3′ ends of poly(dA). […] The radiolabeled product was purified using a NENSORB cartridge and stored in stabilized aqueous solution (PerkinElmer).
Reagents: Streptavidin-coated polyvinyltoluene (PVT) SPA beads were purchased from Amersham Biosciences (Piscataway, N.J.). Cesium chloride was purchased from Shelton Scientific, Inc. (Shelton, Conn.). White, polystyrene, flat-bottom, non-binding surface, 96-well plates were purchased from Corning. All other buffer components were purchased from Sigma (St. Louis, Mo.) unless otherwise indicated. Enzyme Construction: Full-length wild type HIV-1 integrase (SF1) sequence (amino acids 1-288) was constructed in a pET24a vector (Novagen, Madison, Wis.). […] Enzyme Purification: Full length wild-type HIV Integrase was expressed in E.coli BL21 (DE3) cells and induced with 1 mM isopropyl-1 thio-β-D-galactopyranoside (IPTG) when cells reached an optical density between 0.8-1.0 at 600 nm. Cells were lysed by microfluidation in 50 mM HEPES pH 7.0, 75 mM NaCl, 5 mM DTT, 1 mM 4-(2-Aminoethyl)benzenesulfonylfluoride HCl (AEBSF). Lysate was then centrifuged 20 minutes at 11 k rpm in GSA rotor in Sorvall RC-5B at 4° C. Supernant was discarded and pellet resuspended in 50 mM HEPES pH 7.0, 750 mM NaCl, 5 mM DTT, 1 mM AEBSF and homogenized in a 40 mL Dounce homogenizer for 20 minutes on ice. Homogenate was then centrifuged 20 minutes at 11 k rpm in SS34 rotor in Sorvall RC-5B at 4° C. Supernant was discarded and pellet resuspended in 50 mM HEPES pH 7.0, 750 mM NaCl, 25 mM CHAPS, 5 mM DTT, 1 mM AEBSF. Preparation was then centrifuged 20 minutes at 11 k rpm in SS34 rotor in Sorvall RC-5B at 4° C.
Supernant was then diluted 1:1 with 50 mM HEPES pH 7.0, 25 mM CHAPS, 1 mM DTT, 1 mM AEBSF and loaded onto a Q-Sepharose column pre-equilibrated with 50 mM HEPES, pH 7.0, 375 mM NaCl, 25 mM CHAPS, 1 mM DTT, 1 mM AEBSF. The flow through peak was collected and NaCl diluted to 0.1 M with 50 mM HEPES pH 7.0, 25 mM CHAPS, 1 mM DTT, 0.5 mM AEBSF and loaded onto a SP-Sepharose column pre-equilibrated with 50 mM HEPES pH 7.0, 100 mM NaCl, 25 mM CHAPS, 1 mM DTT, 0.5 mM AEBSF. After washing the column with the equilibration buffer, a 100 to 400 mM NaCl gradient was run. The eluted integrase was concentrated and run on a S-300 gel diffusion column using 50 mM HEPES pH 7.0, 500 mM NaCl, 25 mM CHAPS, 1 mM DTT, 0.5 mM AEBSF. […] All columns were run in a 4° C. cold room.
Viral DNA Bead Preparation: Streptavidin-coated SPA beads were suspended to 20 mg/mL in 25 mM 3-morpholinopropanesulfonic acid (MOPS) (pH 7.2) and 1.0% NaN3.

[2] = test system: RF strain of HIV-1 in CEM-SS cells; experiment: HIV-1 cell protection assay (XTT dye reduction); assay type: cell-based; settings: Human immunodeficiency virus 1, CEM-SS, 144 h, HIV-1 RF, six days
Method: HIV-1 Cell Protection Assay
The antiviral activities of potential modulator compounds (test compounds) were determined in HIV-1 cell protection assays using the RF strain of HIV-1, CEM-SS cells, and the XTT dye reduction method (Weislow, O. S. et al., J. Natl. Cancer Inst. 81: 577-586 (1989)). Subject cells were infected with HIV-1 RF virus at an moi of 0.025 to 0.819 or mock infected with medium only and added at 2×10^4 cells per well into 96 well plates containing half-log dilutions of test compounds. Six days later, 50 μl of XTT solution (1 mg/ml XTT tetrazolium and […] phenazine methosulfate) were added to the wells and the plates were reincubated for four hours. Viability, as determined by the amount of XTT formazan produced, was quantified spectrophotometrically by absorbance at 450 nm.
Data from CPE assays were expressed as the percent of formazan produced in compound-treated cells compared to formazan produced in wells of uninfected, compound-free cells. […] The therapeutic index was calculated by dividing the cytotoxicity (CC50) by the antiviral activity (EC50).

SMILES	IC50 [1]	EC50 [2]
C[C@@H](OCc1cn(Cc2ccc(F)cc2)c2cnc3c(=O)n(O)ccc3c12)c1ccccc1 [Example 38, 3-(4-fluorobenzyl)-7-hydroxy-1-{[(1R)-1-phenylethoxy]methyl}-3,7-dihydro-6H-pyrrolo[2,3-c]-1,7-naphthyridin-6-one]	120 nM	0.3 nM
COCCOCc1cn(Cc2ccc(F)cc2)c2cnc3c(=O)n(O)ccc3c12 [Example 9, 3-(4-fluorobenzyl)-7-hydroxy-1-[(2-methoxyethoxy)methyl]-3,7-dihydro-6H-pyrrolo[2,3-c]-1,7-naphthyridin-6-one]	15 nM	0.53 nM
O=c1c2ncc3c(c(S(=O)(=O)NCC(F)(F)F)cn3Cc3ccc(F)cc3)c2ccn1O [Example 24, 3-(4-fluorobenzyl)-7-hydroxy-6-oxo-N-(2,2,2-trifluoroethyl)-6,7-dihydro-3H-pyrrolo[2,3-c]-1,7-naphthyridine-1-sulfonamide]	5 nM	
Cc1cnc(CNCc2cn(Cc3ccc(F)cc3)c3cnc4c(=O)n(O)ccc4c23)cn1 [Example 42, 3-(4-fluorobenzyl)-7-hydroxy-1-({[(5-methylpyrazin-2-yl)methyl]amino)methyl)-3,7-dihydro-6H-pyrrolo[2,3-c]-1,7-naphthyridin-6-one]	54 nM	
CCCCc1cc2c(ncc3c2ccn3Cc2ccc(F)cc2)c(=O)n1O [Example 46, 8-butyl-3-(4-fluorobenzyl)-7-hydroxy-3,7-dihydro-6H-pyrrolo[2,3-c]-1,7-naphthyridin-6-one]	49 nM	
CCCCCN(C)Cc1cn(Cc2ccc(F)cc2)c2cnc3c(=O)n(O)ccc3c12 [Example 11, 3-(4-fluorobenzyl)-7-hydroxy-1-{[methyl(pentyl)amino]methyl}-3,7-dihydro-6H-pyrrolo[2,3-c]-1,7-naphthyridin-6-one]	6 nM	
O=c1c2ncc3c(ccn3Cc3ccc(F)cc3)c2ccn1O [Example 1, 3-(4-Fluorobenzyl)-7-hydroxy-3,7-dihydro-6H-pyrrolo[2,3-c]-1,7-naphthyridin-6-one]	20 nM	
CN(Cc1cnn(-c2ccccc2)c1)Cc1cn(Cc2ccc(F)cc2)c2cnc3c(=O)n(O)ccc3c12 [Example 59, 3-(4-fluorobenzyl)-7-hydroxy-1-({methyl[(1-phenyl-1H-pyrazol-4-yl)methyl]amino}methyl)-3,7-dihydro-6H-pyrrolo[2,3-c]-1,7-naphthyridin-6-one]	19 nM	
